Assay results from publication PMC6150295, “Synthesis and Biological Evaluation of 2H-Indazole Derivatives: Towards Antimicrobial and Anti-Inflammatory Dual Agents” (Molecules : A Journal of Synthetic Chemistry and Natural …, 2017).
Read-outs that look alike come from different tables or passages of the source.

What was measured:
[1] = tested on: Giardia intestinalis isolate IMSS:0981:1; assay: In vitro antiprotozoal assay (trophozoite subculture method); assay type: cell-based; settings: for IC50: Giardia duodenalis, read-out: IC50 (µM) G. intestinalis
Protocol: (§1) The in vitro antiprotozoal assays against E. histolytica, G. intestinalis, and T. vaginalis of the 2-phenyl-2H-indazole and 2,3-diphenyl-2H-indazole derivatives were carried out following the method previously described. Metronidazole (MTZ) and albendazole (ABZ) were used as reference drugs. […] Similarly, compound 7, having a phenyl at position 2, has good activity against the three protozoa, ranking third in activity for T. vaginalis and forth against G. intestinalis and E. histolytica. […] These derivatives had groups H, COOCH3, Cl, and SO2CH3 at positions 2 and 3, substituents that induced the best response in 2-phenyl-2H-indazole derivatives. In addition, carboxylic acids 20 and 25 were of interest for comparative purposes with ester derivatives.
(§2) Trichomonas vaginalis strain GT3, Giardia intestinalis isolate IMSS:0981:1, and Entamoeba histolytica strain HM1-IMSS were used. Trophozoites of G. intestinalis were maintained in a TYI-S-33 medium supplemented with 10% calf serum and bovine bile. E. histolytica and T. vaginalis trophozoites were maintained in TYI-S-33 medium supplemented with 10% bovine serum. Briefly, 5 × 10^4 trophozoites of G. intestinalis or T. vaginalis, or 6 × 10^3 trophozoites of E. histolytica were incubated for 48 h at 37 °C with different concentrations of the compound to be tested, each added as solutions in DMSO. As a negative control, parasite cultures received an equivalent amount of DMSO only, while albendazole and metronidazole were included as positive controls. At the end of the treatment period, the cells were washed and subcultured for another 48 h in a fresh medium to which no drug was added. […] Experiments were carried out in triplicate and repeated at least twice.

[2] = tested on: Entamoeba histolytica strain HM1-IMSS; assay: as above; assay type: cell-based; settings: for IC50: Entamoeba histolytica, read-out: IC50 (µM) E. histolytica; for improvement in potency against E. histolytica relative to the analog: 17 compared with 8, 20 compared to 13, 26 compared to 21
Protocol: as §1, §2

[3] = tested on: Trichomonas vaginalis strain GT3; assay: as above; assay type: cell-based; settings: for IC50: Trichomonas vaginalis, read-out: IC50 (µM) T. vaginalis
Protocol: as §1, §2

Candida glabrata = assay: Disk diffusion susceptibility test; assay type: cell-based; settings: for Inhibition (positive / none) C. glabrata: 5 mg per disc, 37 °C, 24 h; for zone of inhibition at 5000 µg/disc: Nakaseomyces glabratus, read-out: Zone of inhibition at 5 mg per disc (mm) C. glabrata
[4] = tested on: Escherichia coli strain 042 (EAEC); assay: Disk diffusion susceptibility test; assay type: cell-based; settings: 5 mg per disc, 37 °C, 24 h
[5] = tested on: Salmonella enterica serovar Typhi; assay: Disk diffusion susceptibility test; assay type: cell-based
[6] = tested on: Escherichia coli strain EDL933 (EHEC); assay: Disk diffusion susceptibility test; assay type: cell-based; settings: for Inhibition (positive / none) E. coli 933: 5 mg per disc, 37 °C, 24 h; for zone of inhibition at 5000 µg/disc: Escherichia coli, read-out: Zone of inhibition at 5 mg per disc (mm) E. coli 933
Candida albicans = assay: Disk diffusion susceptibility test; assay type: cell-based; settings: for Inhibition (positive / none) C. albicans: 5 mg per disc, 37 °C, 24 h
[7] = molecular target: T1, human recombinant cyclooxygenase-2 (Homo sapiens, UniProt P35354); assay: COX inhibitor screening assay (Cayman kit); assay type: biochemical; settings: tested at 10 µM
T1 construct: purchased Cayman Chemical 560131
T1 sequence (P35354 18-604): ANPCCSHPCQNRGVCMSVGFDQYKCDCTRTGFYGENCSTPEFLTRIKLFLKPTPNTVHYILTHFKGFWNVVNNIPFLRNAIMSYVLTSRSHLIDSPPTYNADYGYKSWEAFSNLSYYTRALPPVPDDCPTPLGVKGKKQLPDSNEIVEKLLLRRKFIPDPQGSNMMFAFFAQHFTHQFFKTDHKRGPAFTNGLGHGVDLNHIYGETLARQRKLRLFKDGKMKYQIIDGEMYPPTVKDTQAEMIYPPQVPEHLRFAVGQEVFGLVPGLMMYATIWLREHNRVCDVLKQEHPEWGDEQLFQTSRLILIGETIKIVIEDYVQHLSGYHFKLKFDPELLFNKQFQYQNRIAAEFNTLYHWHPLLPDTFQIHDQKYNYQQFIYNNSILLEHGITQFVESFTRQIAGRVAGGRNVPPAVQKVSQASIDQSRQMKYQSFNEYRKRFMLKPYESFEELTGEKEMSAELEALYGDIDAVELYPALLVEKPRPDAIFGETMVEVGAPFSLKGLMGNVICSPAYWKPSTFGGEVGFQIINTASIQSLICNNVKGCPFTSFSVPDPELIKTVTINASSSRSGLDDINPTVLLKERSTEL
Protocol: Additionally, molecular docking studies using AutoDock Vina software (TSRI, La Jolla, CA, USA) were performed to aid in the interpretation of the experimental results. […] Nevertheless, these compounds represent an interesting starting point towards the design of new antiparasitic compounds with an additional COX-2 inhibitory property.
Assays were carried out by duplicate following the instructions provided by the manufacturer.

[8] = trophozoites, 48 h with compound then 48 h subculture without drug
[9] = GT3, trophozoites, 48 h with compound then 48 h subculture without drug
[10] = 16 relative to 7, 20 compared to 13

| Compound | IC50 [1, 8] [µM] | IC50 [2, 8] [µM] | IC50 [3, 9] [µM] | melting point [°C] | Inhibition (positive / none) C. glabrata (Candida glabrata) | Inhibition (positive / none) E. coli 042 [4] | Inhibition (positive / none) S. Typhi ([5]; 5 mg per disc, 37 °C, 24 h) | Inhibition (positive / none) E. coli 933 [6] | Inhibition (positive / none) C. albicans (Candida albicans) | other results |
| --- | --- | --- | --- | --- | --- | --- | --- | --- | --- | --- |
| CSc1ccc(-n2cc3ccccc3n2)cc1 [Compound 11, 2-(4-(Methylthio)phenyl)-2H-indazole] | 0.218 ± 0.0088 | 0.0978 ± 0.0147 | 0.273 ± 0.0147 | 148.3 to 149.7 |  |  |  |  |  |  |
| Clc1ccc(-c2c3ccccc3nn2-c2ccccc2)cc1 [Compound 22, 3-(4-Chlorophenyl)-2-phenyl-2H-indazole] | 0.113 ± 0.007 | 0.0394 | 0.118 ± 0.0046 | 141.1 to 142.8 | + | - | - | + | - | zone of inhibition at 5000 µg/disc (Candida glabrata): 2 mm; zone of inhibition at 5000 µg/disc [6]: 1 mm |
| Oc1ccc(-n2cc3ccccc3n2)cc1 [Compound 12, 4-(2H-Indazol-2-yl) phenol] | 0.119 ± 0.0067 | 0.0737 ± 0.0101 | 0.157 ± 0.0135 | 179 to 181 |  |  |  |  |  |  |
| CSc1ccc(-n2nc3ccccc3c2-c2ccccc2)cc1 [Compound 19, 2-(4-(Methylthio)phenyl)-3-phenyl-2H-indazole] |  |  |  | 87.7 to 89 |  |  |  |  |  |  |
| C[S+]([O-])c1ccc(-n2cc3ccccc3n2)cc1 (centres unmarked) [Compound 14, 2-(4-(Methylsulfinyl)phenyl)-2H-indazole] | 0.168 ± 0.011 | 0.0878 ± 0.0083 | 0.312 ± 0.011 | 150.1 to 152.7 |  |  |  |  |  |  |
| CC1(C)S[C@@H]2[C@H](NC(=O)[C@H](N)c3ccccc3)C(=O)N2[C@H]1C(=O)O [Ampicillin, ampicillin, reference compound] |  |  |  |  |  |  |  |  |  | Inhibition (positive / none) S. Typhi ([5]; positive control, ampicillin 25 µg): + |
| COC(=O)c1ccc(-n2cc3ccccc3n2)cc1 [Compound 10, Methyl 4-(2H-indazol-2-yl) benzoate] | 0.0634 ± 0.0056 | 0.0218 ± 0.0028 | 0.107 ± 0.0056 | 185.8 to 186.2 | - | - | - | - | - |  |
| Clc1ccc(-n2cc3ccccc3n2)cc1 [Compound 8, 2-(4-Chlorophenyl)-2H-indazole] | 0.0634 ± 0.0031 | 0.0415 ± 0.0031 | 0.107 ± 0.0031 | 143 to 145.5 |  |  |  |  |  |  |
| O=C(O)c1ccc(-n2nc3ccccc3c2-c2ccccc2)cc1 [Compound 20, 4-(3-Phenyl-2H-indazol-2-yl) benzoic acid] | 0.0795 ± 0.0045 | 0.0445 ± 0.0045 | 0.111 ± 0.018 | 129.2 to 130.1 | + | - | - | + | - | zone of inhibition at 5000 µg/disc (Candida glabrata): 2 mm; improvement in potency against G. intestinalis relative to the analog [1, 10]: two-fold; improvement in potency against E. histolytica relative to the analog [2]: two-fold; improvement in potency against T. vaginalis relative to the analog [3, 10]: three-fold; zone of inhibition at 5000 µg/disc [6]: 2 mm |
| Cc1ncc([N+](=O)[O-])n1CCO [MTZ, Metronidazole, reference compound] | 1.23 ± 0.125 | 0.38 ± 0.146 | 0.236 ± 0.016 |  |  |  |  |  |  |  |
| CCCSc1ccc2nc(NC(=O)OC)[nH]c2c1 [ABZ, albendazole, reference compound] |  |  |  |  |  |  |  |  |  | IC50 ([1]; 48 h): 0.037 ± 0.003 µM; IC50 ([2]; 48 h): 56.5 ± 18.8 µM; IC50 ([3]; GT3, 48 h): 1.591 ± 0.0113 µM |
| CS(=O)(=O)c1ccc(-n2cc3ccccc3n2)cc1 [Compound 15, 2-(4-(Methylsulfonyl)phenyl)-2H-indazole] | 0.09 ± 0.0234 | 0.136 ± 0.0052 | 0.145 ± 0.0026 | 200.6 to 201.5 | - | - | - | - | - |  |
| CS(=O)(=O)c1ccc(-n2nc3ccccc3c2-c2ccccc2)cc1 [Compound 21, 2-(4-(Methylsulfonyl)phenyl)-3-phenyl-2H-indazole] | 0.124 ± 0.0122 | 0.208 ± 0.0061 | 0.214 ± 0.0101 | 101.8 to 102.7 | - | - | - | - | - | inhibition at 10 µM [7]: 44.5 ± 2.65% |
| O=C(O)c1ccc(-c2c3ccccc3nn2-c2ccccc2)cc1 [Compound 25, 4-(2-Phenyl-2H-indazol-3-yl) benzoic acid] | 0.121 ± 0.009 | 0.0509 | 0.24 ± 0.0067 | 296.2 to 298.2 | - | - | - | + | + | zone of inhibition at 5000 µg/disc [6]: 2 mm; zone of inhibition at 5000 µg/disc (Candida albicans; Candida albicans, read-out: Zone of inhibition at 5 mg per disc (mm) C. albicans): 1 mm |
| COc1ccc(-n2cc3ccccc3n2)cc1 [Compound 9, 2-(4-Methoxyphenyl)-2H-indazole] | 0.205 ± 0.0063 | 0.154 ± 0.0158 | 0.372 ± 0.0158 | 133.2 to 135.8 |  |  |  |  |  |  |
| CS(=O)(=O)c1ccc(-c2c3ccccc3nn2-c2ccccc2)cc1 [Compound 26, 3-(4-(Methylsulfonyl)phenyl)-2-phenyl-2H-indazole] | 0.106 ± 0.0081 | 0.0459 ± 0.0081 | 0.184 ± 0.0162 | 206.9 to 208.8 | - | - | - | - | - | improvement in potency against E. histolytica relative to the analog [2]: four-fold; inhibition at 10 µM [7]: 41.2 ± 5.93% |
| O=C(O)c1ccc(-n2cc3ccccc3n2)cc1 [Compound 13, 4-(2H-Indazol-2-yl) benzoic acid] | 0.193 ± 0.0119 | 0.0965 ± 0.0059 | 0.327 ± 0.0178 | 288.3 to 288.5 |  |  |  |  |  |  |
| CSc1ccc(-c2c3ccccc3nn2-c2ccccc2)cc1 [Compound 24, 3-(4-(Methylthio)phenyl)-2-phenyl-2H-indazole] |  |  |  | 119.3 to 121.4 |  |  |  |  |  |  |
| Clc1ccc(-n2nc3ccccc3c2-c2ccccc2)cc1 [Compound 17, 2-(4-Chlorophenyl)-3-phenyl-2H-indazole] | 0.0607 ± 0.0023 | 0.0213 ± 0.0023 | 0.103 ± 0.0023 | 124.4 to 125 | - | - | - | + | - | improvement in potency against E. histolytica relative to the analog [2]: two-fold; zone of inhibition at 5000 µg/disc [6]: 2 mm |
